Laboratory results as given in ChEMBL document CHEMBL3580638, “Targeting HER-2 over expressed breast cancer cells with 2-cyclohexyl-N-[(Z)-(substituted phenyl/furan-2-yl/thiophene-2-yl)methylidene]hydrazinecarbothioamide” (Bioorg Med Chem Lett, 2014).
Activity calls are given as the source filed them. No cut-off for these calls is given here.

Key:
MDA-MB-231 [1] = experiment: Cytotoxicity against human MDA-MB-231 cells assessed as cell growth inhibition after 48 hrs by WST-1 assay; assay type: functional, cell-based; details: MDA-MB-231, 48 h
MDA-MB-468 [2] = experiment: Cytotoxicity against human MDA-MB-468 cells assessed as cell growth inhibition after 48 hrs by WST-1 assay; assay type: functional, cell-based; details: MDA-MB-468, 48 h
[3] = Cytotoxicity against human SKBR3 cells overexpressing HER2 assessed as cell growth inhibition after 48 hrs by WST-1 assay; assay type: functional, cell-based; details: SK-BR-3, 48 h
MCF7 [4] = experiment: Cytotoxicity against human MCF7 cells assessed as cell growth inhibition after 48 hrs by WST-1 assay; assay type: functional, cell-based; details: MCF7, 48 h
SK-BR-3 [5] = experiment: Decrease in ALDH activity in human SKBR3 cells overexpressing HER2 assessed as reduction in ALDH-positive population at 30 uM after 72 hrs by Aldefluor assay; assay type: functional
[6] = Decrease in HER2 expression in human SKBR3 cells overexpressing HER2 by immunohistochemistry staining; assay type: functional, cell-based; details: SK-BR-3
MDA-MB-231 [7] = experiment: Cytotoxicity against human MDA-MB-231 cells assessed as cell growth inhibition at 300 uM after 48 hrs by WST-1 assay; assay type: functional, cell-based
MDA-MB-468 [8] = experiment: Cytotoxicity against human MDA-MB-468 cells assessed as cell growth inhibition at 300 uM after 48 hrs by WST-1 assay; assay type: functional, cell-based
MCF7 [9] = experiment: Cytotoxicity against human MCF7 cells assessed as cell growth inhibition at 300 uM after 48 hrs by WST-1 assay; assay type: functional, cell-based
SK-BR-3 [10] = experiment: Decrease in ALDH activity in human SKBR3 cells overexpressing HER2 assessed as ALDH-positive population by flow cytometry in presence of ALDH inhibitor DEAB (reference value: 0.7%); assay type: functional; design: scale not given: the % may be the effect or the level left
SK-BR-3 [11] = experiment: Decrease in ALDH activity in human SKBR3 cells overexpressing HER2 assessed as ALDH-positive population by flow cytometry in absence of ALDH inhibitor DEAB (reference value: 20%); assay type: functional; design: scale not given: the % may be the effect or the level left
SK-BR-3 [12] = experiment: Inhibition of cell migration in human SKBR3 cells overexpressing HER2 at 25 uM after 8 hrs by microtiter plate reader analysis; assay type: functional; details: SK-BR-3, 8 h
MDA-MB-231 [13] = experiment: Inhibition of cell migration in human MDA-MB-231 cells at 25 uM after 8 hrs by microtiter plate reader analysis; assay type: functional; details: MDA-MB-231, 8 h
MCF7 [14] = experiment: Inhibition of cell migration in human MCF7 cells at 25 uM after 8 hrs by microtiter plate reader analysis; assay type: functional; details: MCF7, 8 h
SK-BR-3 [15] = experiment: Inhibition of cell adhesion in human SKBR3 cells overexpressing HER2 at 25 uM after 30 to 90 mins by microtiter plate reader analysis; assay type: functional
MDA-MB-231 [16] = experiment: Inhibition of cell adhesion in human MDA-MB-231 cells at 25 uM after 30 to 90 mins by microtiter plate reader analysis; assay type: functional
MCF7 [17] = experiment: Inhibition of cell adhesion in human MCF7 cells at 25 uM after 30 to 90 mins by microtiter plate reader analysis; assay type: functional

Work on `Oc1ccc(/C=N\NC(=S)NC2CCCCC2)cc1` yielded an IC50 (MDA-MB-231 [1]) of 115 µM, an IC50 (MDA-MB-468 [2]) of 242 µM and an IC50 [3] of 29.9 µM. For the same molecule, the IC50 (MCF7 [4]) was 50.4 µM, the inhibition (SK-BR-3 [5]) was “Active” and the inhibition [6] was “Active”.
With `S=C(N/N=C\c1ccc2c(c1)OCO2)NC1CCCCC1` the IC50 [3] was 61.6 µM, the inhibition (MDA-MB-231 [7]) was “inactive” and the inhibition (MDA-MB-468 [8]) was “inactive”. The inhibition (MCF7 [9]) was “inactive”.
With `COc1ccc(/C=N\NC(=S)NC2CCCCC2)cc1OC` the IC50 [3] was 47.9 µM, the IC50 (MCF7 [4]) was 99.2 µM and the inhibition (MDA-MB-231 [7]) was “inactive”. For the same molecule, the inhibition (MDA-MB-468 [8]) was “inactive”.
For `S=C(N/N=C\c1ccco1)NC1CCCCC1`, the IC50 (MDA-MB-231 [1]) was 141 µM, the IC50 [3] was 45.7 µM and the inhibition (MDA-MB-468 [8]) was “inactive”. For the same molecule, the inhibition (MCF7 [9]) was “inactive”.
For `O=[N+]([O-])c1ccc(/C=N\NC(=S)NC2CCCCC2)cc1`, the IC50 [3] was 41 µM, the inhibition (MDA-MB-231 [7]) was “inactive” and the inhibition (MDA-MB-468 [8]) was “inactive”. The inhibition (MCF7 [9]) was “inactive”.
For `CN(C)c1ccc(/C=N\NC(=S)NC2CCCCC2)cc1`, the IC50 (MDA-MB-231 [1]) was 125 µM, the IC50 (MDA-MB-468 [2]) was 280 µM and the IC50 [3] was 31.2 µM. For the same molecule, the IC50 (MCF7 [4]) was 51.1 µM.
With `CC[C@@H](C(=O)[C@@H](C)[C@@H](O)[C@H](C)[C@@H]1O[C@@H]([C@@H](CC)C(=O)O)CC[C@@H]1C)[C@H]1O[C@]2(C=C[C@@H](O)[C@]3(CC[C@@](C)([C@H]4CC[C@](O)(CC)[C@H](C)O4)O3)O2)[C@H](C)C[C@@H]1C` [SALINOMYCIN] the Activity (SK-BR-3 [10]) was 0.6% and the Activity (SK-BR-3 [11]) was 30%.
`S=C(N/N=C\c1ccc(Cl)cc1)NC1CCCCC1` showed an IC50 (MDA-MB-231 [1]) of 38.3 µM, an IC50 (MDA-MB-468 [2]) of 41.6 µM and an IC50 [3] of 32.2 µM. The IC50 (MCF7 [4]) was 91.4 µM.
For `O=[N+]([O-])c1cccc(/C=N\NC(=S)NC2CCCCC2)c1`, the IC50 (MDA-MB-231 [1]) was 84.8 µM, the IC50 [3] was 34.6 µM and the inhibition (MDA-MB-468 [8]) was “inactive”. The inhibition (MCF7 [9]) was “inactive”.
Work on `COc1cccc(/C=N\NC(=S)NC2CCCCC2)c1` yielded an IC50 (MDA-MB-231 [1]) of 88.9 µM, an IC50 (MDA-MB-468 [2]) of 46.7 µM and an IC50 [3] of 30.9 µM. The IC50 (MCF7 [4]) was 49.9 µM, the inhibition at 30 µM (SK-BR-3 [5]; SK-BR-3, 72 h) was 50% and the Activity (SK-BR-3 [10]) was 0.7%. The Activity (SK-BR-3 [11]) was 9.5%, the inhibition [6] was “Active” and the inhibition at 25 µM (SK-BR-3 [12]) was 46.7%. The inhibition at 25 µM (MDA-MB-231 [13]) was 31.4%, the inhibition at 25 µM (MCF7 [14]) was 32.4% and the inhibition at 25 µM (SK-BR-3 [15]) was 45.6%. The inhibition at 25 µM (MDA-MB-231 [16]) was 32.3% and the inhibition at 25 µM (MCF7 [17]) was 15.9%.
`Oc1cccc(/C=N\NC(=S)NC2CCCCC2)c1` gave an IC50 (MDA-MB-231 [1]) of 24.5 µM, an IC50 (MDA-MB-468 [2]) of 32.2 µM and an IC50 [3] of 25.6 µM. For the same molecule, the inhibition (MCF7 [9]) was “inactive”, the inhibition (SK-BR-3 [5]) was “Active” and the inhibition [6] was “Active”.
Work on `S=C(N/N=C\c1cccs1)NC1CCCCC1` yielded an IC50 (MDA-MB-231 [1]) of 58.6 µM, an IC50 (MDA-MB-468 [2]) of 337 µM and an IC50 [3] of 30.4 µM. The IC50 (MCF7 [4]) was 49.8 µM, the inhibition (SK-BR-3 [5]) was “Active” and the inhibition [6] was “Active”.
For `O=c1[nH]cc(F)c(=O)[nH]1` [FLUOROURACIL], the IC50 (MDA-MB-231 [1]) was 77.3 µM, the IC50 [3] was 38.9 µM and the IC50 (MCF7 [4]) was 34.5 µM.
`CCOc1ccc(/C=N\NC(=S)NC2CCCCC2)cc1` showed an IC50 (MDA-MB-231 [1]) of 68.2 µM, an IC50 (MDA-MB-468 [2]) of 252 µM and an IC50 [3] of 29.9 µM. The IC50 (MCF7 [4]) was 166 µM, the inhibition (SK-BR-3 [5]) was “Active” and the Activity (SK-BR-3 [10]) was 0.7%. For the same molecule, the Activity (SK-BR-3 [11]) was 11.1% and the inhibition [6] was “Active”.
Work on `Oc1ccc(/C=N\NC(=S)NC2CCCCC2)c(O)c1` yielded an IC50 (MDA-MB-231 [1]) of 56.6 µM, an IC50 (MDA-MB-468 [2]) of 44.6 µM and an IC50 [3] of 27.7 µM. The IC50 (MCF7 [4]) was 105 µM.
For `O=[N+]([O-])c1ccccc1/C=N\NC(=S)NC1CCCCC1`, the IC50 (MDA-MB-231 [1]) was 118 µM, the IC50 [3] was 46.5 µM and the inhibition (MDA-MB-468 [8]) was “inactive”. The inhibition (MCF7 [9]) was “inactive”.
